Measured values published in paper PMC7985170, “Marine Peptide-N6NH2 and Its Derivative-GUON6NH2 Have Potent Antimicrobial Activity Against Intracellular Edwardsiella tarda in vitro and in vivo” (Frontiers in Microbiology, 2021).
In brackets after ≈: the same amount, converted by molar mass. Where a SMILES comes first, the peptide text is derived from it. Bridges are numbered along the chain shown (N, C = ends). The star is where a group is joined. Orn(α-tetramethylguanidino) = CN(C)C(=N[C@@H](CCCN)C(=O)*)N(C)C

Legend:
[1] = test system: Gram-negative and Gram-positive bacteria (ALL); test: Geometric mean of MICs and therapeutic index; type: cell-based; conditions: for GM ALL: geometric mean (GM) of MICs, all strains; for TI ALL: therapeutic index (TI), cell selectivity
Experimental: (§1) The antimicrobial activity of peptides was determined by the microbroth dilution method ([Zhang et al., 2014]). The bacterial strains were incubated in Mueller-Hinton (MH) medium at 28°C or 37°C overnight. Bacteria (1 × 10^5 CFU/mL) were added into 96-well plates, followed by the addition of serial dilutions of peptides (from 0.0625 to 128 μg/mL). The plates were incubated at 37°C for 18–24 h. The minimal inhibitory concentration (MIC) value was determined as the lowest peptide concentration at which no bacterial growth was observed.
(§2) The geometric mean (GM) of MICs of peptides against Gram-negative and Gram-positive bacteria was calculated, and the result was shown in Table 3. […] For Gram-negative bacteria, the TI value of GUON6NH2 (53.33) was very close to N6NH2 (58.18), while for positive bacteria, the TI value of GUON6NH2 (12.8) was slightly higher than that of N6NH2 (12.31), indicating their huge therapeutic potential. For Gram-positive bacteria, DN6NH2 had the highest TI value and the best therapeutic potential.

[2] = test system: Gram-negative bacteria; test: Geometric mean of MICs and therapeutic index; type: cell-based; conditions: for GM Gram-negative bacteria: geometric mean (GM) of MICs against Gram-negative bacteria; for TI Gram-negative bacteria: therapeutic index (TI), cell selectivity
Experimental: as §1, §2

[3] = test system: Gram-positive bacteria; test: Geometric mean of MICs and therapeutic index; type: cell-based; conditions: for GM Gram-positive bacteria: geometric mean (GM) of MICs against Gram-positive bacteria; for TI Gram-positive bacteria: therapeutic index (TI), cell selectivity
Experimental: as §1, §2

[4] = type: cell-based, Streptococcus enteritidis
Experimental: as §1

[5] = test system: E. tarda; test: Mouse peritonitis model, survival; type: in vivo; conditions: 1 μmoL/kg i.p. at 1 h postinfection, ICR mice, 5 days
Experimental: To establish a peritonitis mouse model, six-week-old female ICR mice (five mice/group) were intraperitoneally injected with E. tarda (1 × 10^9 CFU/mL, 0.5 mL). The infected mice were followed by the intraperitoneal injection of N6NH2, GUON6NH2 or norfloxacin (1 μmol/kg of body weight, 0.2 mL) at 1 h postinfection, respectively. Mice injected with only bacteria or PBS were used as negative or blank controls. The survival of mice was recorded daily for 5 days.

[6] = test system: S. aureus ATCC546; type: cell-based, Staphylococcus aureus
Experimental: as §1

[7] = test system: S. aureus ATCC25923; type: cell-based, Staphylococcus aureus
Experimental: as §1

[8] = test system: inner membrane of E. tarda; test: Inner membrane penetration, PI staining by flow cytometry; type: cell-based, Edwardsiella tarda; conditions: 1× MIC, 5–30 min at 37°C, 1 × 10^8 CFU/mL
Experimental: Mid-log phase E. tarda cells (1 × 10^8 CFU/mL) were incubated with or without 1× MIC peptides solutions at 37°C for 5, 15, and 30 min, respectively. After washing twice with PBS, bacterial cells were then incubated with 50 μg/mL propidium iodide (PI) for 15 min and analyzed using a FACS Calibur Flow Cytometer (BD, United States) ([Stearns-Kurosawa et al., 2011]).

[9] = test system: S. pullorum CVCC1789; type: cell-based, Salmonella pullorum
Experimental: as §1

[10] = test system: E. tarda; test: Mouse peritonitis model, bacterial counts in peritoneal fluid; type: in vivo; conditions: 1 μmol/kg i.p., peritoneal fluid cells 24 h after treatment
Experimental: The mice were intraperitoneally infected with E. tarda (1 × 10^9 CFU/mL, 0.5 mL) and then injected with N6NH2 and GUON6NH2 (1 μmol/kg) or PBS (the blank control) in the same way at 1 h after infection. The mice were then killed at 24 h after treatment, and peritoneal fluids were obtained by washing with 5 mL of ice-cold PBS. The total number of E. tarda in the fluids was determined before any further procedures. For intracellular bacteria quantification, the other fraction was centrifuged for 5 min at 4°C (1,000 rpm). The cells were collected, treated with 1,000 μg/mL gentamicin for 30 min at 37°C to kill extracellular bacteria, and washed with ice-cold PBS twice to remove extracellular gentamicin. Subsequently, the cells were lysed and the bacteria were counted as described above for the in vitro experiment ([Kim et al., 2011]).

[11] = test system: E. tarda; test: Time-killing curve; type: cell-based, Edwardsiella tarda; conditions: 2× or 4× MIC, MHB, 1 × 10^5 CFU/mL, 28°C
Experimental: Time-killing curve of peptides was performed according to the previous method ([Flamm et al., 2019]). E. tarda was cultured to logarithmic phase, diluted in Mueller Hinton broth (MHB) (1 × 10^5 CFU/mL) containing 1×, 2×, or 4× MIC of peptides, and cultured at 28°C (200 rpm). PBS was added as a control. Bacterial samples (100 μL) were removed at different time intervals (0, 0.5, 1, 1.5, 2, 4, 6, 8, 10, 12, 22, and 24 h) and were counted on MH solid plates. The time-killing curves of peptides were plotted. Bacterial cells treated with 2× MIC norfloxacin and without treatment were used as the positive and blank controls, respectively.

[12] = test system: E. coli CVCC1515; type: cell-based, Escherichia coli
Experimental: as §1

[13] = test system: E. coli CVCC25922; type: cell-based, Escherichia coli
Experimental: as §1

[14] = test system: S. hyicus 15095; type: cell-based, Staphylococcus hyicus
Experimental: as §1

[15] = test system: E. tarda; test: Post-antibiotic effect (PAE); type: cell-based, Edwardsiella tarda; conditions: for PAE: 2 h exposure, E. tarda, 28°C, n = 3
Experimental: E. tarda cells were incubated with peptides (1×, 2×, or 4× MIC) for 2 h, diluted, and cultured at 28°C and 200 rpm. An aliquot of samples (50 μL) were taken for CFU counts at different time intervals until bacterial cultures became turbid. Bacteria treated with the N6NH2, GUON6NH2 or vancomycin were used as the positive control; bacteria without treatment were used as the blank control. The PAE was calculated using the following formula: PAE = T–C, where T is the time for the CFU counts to increase by 10-fold above the count observed immediately after drug removal, and C is the corresponding time for the untreated control ([Oh et al., 2019]).

[16] = test system: E. tarda; test: Post-antibiotic effect (PAE); type: cell-based, Edwardsiella tarda; conditions: 4× MIC

Structure (SMILES)	GM ALL [1] [µg/mL]	TI ALL [1]	GM Gram-negative bacteria [2] [µg/mL]	TI Gram-negative bacteria [2]	GM Gram-positive bacteria [3] [µg/mL]	TI Gram-positive bacteria [3]	MIC [4] [µg/mL]	survival rate of mice [5] [%]	MIC [6] [µg/mL]	MIC [7] [µg/mL]	penetration rate (PI-stained cells) [8]	MIC [9] [µg/mL]	reduction of intracellular bacteria [10] [Log10 CFU]	time to completely kill E. tarda [11] [h]	MIC [12] [µg/mL]	MIC [13] [µg/mL]	MIC [14] [µg/mL]	PAE ([15]; 1× MIC) [h]	PAE ([15]; 2× MIC) [h]	PAE ([15]; 4× MIC) [h]	also measured
CC(C)[C@@H]1NC(=O)CNC(=O)[C@H](CC(N)=O)NC(=O)[C@H](CCCNC(=N)N)NC(=O)[C@H](Cc2ccc(O)cc2)NC(=O)[C@H](C(C)C)NC(=O)[C@@H](NC(=O)[C@@H](NC(=O)[C@H](CC(N)=O)NC(=O)[C@H](Cc2c[nH]c3ccccc23)NC(=O)[C@H](C)NC(=O)[C@H](Cc2ccccc2)NC(=O)CN)C(C)C)CSSC[C@@H](C(=O)N[C@@H](Cc2cnc[nH]2)C(=O)N[C@@H](CCCNC(=N)N)C(=O)N[C@@H](CCCNC(=N)N)C(=O)N[C@@H](C)C(=O)N[C@@H](CC(N)=O)C(N)=O)NC(=O)[C@H](C(C)C)NC(=O)[C@H](CCCNC(=N)N)NC1=O [N6NH2]	9.87	25.94	4.4	58.18	20.8	12.31	2 (≈ 0.808 µM)	80	16 (≈ 6.46 µM)	32 (≈ 12.9 µM)	0.99–1.71%	8 (≈ 3.23 µM)	1.54	≤ 6	2 (≈ 0.808 µM)	4 (≈ 1.62 µM)	8 (≈ 3.23 µM)	1.75	1.67	1.5	–
CC(C)[C@@H]1NC(=O)CNC(=O)[C@H](CC(N)=O)NC(=O)[C@H](CCCNC(=N)N)NC(=O)[C@H](Cc2ccc(O)cc2)NC(=O)[C@H](C(C)C)NC(=O)[C@@H](NC(=O)[C@@H](NC(=O)[C@H](CC(N)=O)NC(=O)[C@H](Cc2c[nH]c3ccccc23)NC(=O)[C@H](C)NC(=O)[C@H](Cc2ccccc2)NC(=O)[C@H](CCCN)N=C(N(C)C)N(C)C)C(C)C)CSSC[C@@H](C(=O)N[C@@H](Cc2c[nH]cn2)C(=O)N[C@@H](CCCNC(=N)N)C(=O)N[C@@H](CCCNC(=N)N)C(=O)N[C@@H](C)C(=O)N[C@@H](CC(N)=O)C(N)=O)NC(=O)[C@H](C(C)C)NC(=O)[C@H](CCCNC(=N)N)NC1=O [GUON6NH2] ({Orn(α-tetramethylguanidino)}-FAWNVCVYRNGVRVCHRRAN-NH2; disulfide 6-15)	9.87	25.94	4.8	53.33	20	12.8	2 (≈ 0.76 µM)	60	16 (≈ 6.08 µM)	32 (≈ 12.2 µM)	0.78–2.84%	8 (≈ 3.04 µM)	1.97	≤ 6	2 (≈ 0.76 µM)	4 (≈ 1.52 µM)	4 (≈ 1.52 µM)	1.54	1.51	3.97	PAE, times longer than that of norfloxacin [16]: 1.27 times; PAE, times longer than that of N6NH2 ([15]; 4× MIC): 2.65 times
